Ends that are not written are not given here. * marks the point of attachment. Palmitoyl = CCCCCCCCCCCCCCCC(=O)*; Gga = not defined here
Columns and labels:
[1] = system: superoxide dismutase (SOD) protein; test: Western immunoblot of SOD protein in rat brain primary cortical cultures; type: cell-based; details: for SOD: 5 hours at 37° C.
Description: Primary cortical cultures were obtained by growing newborn rat brain cortical cells in Delbecco's modified Eagle medium supplemented with 25 μg/ml of gentamycin and 10% fetal calf serum. The cells were isolated from the E-21 cortex of rat brain, plated at a density of 1×10^5 per ml and grown to confluence within four to five days in an atmosphere containing air and 5% CO2 at 37° C. as described in Cornell-Bell et al., Science, 247: 470-473 (1990) and Cell Calcium, 12: 185-204 (1991). Cultures were grown in 20 ml flasks as a monolayer and then exposed to various concentrations of peptides for studies of the effects of peptides on upregulation of genes for SOD and CAT and on the transmigration of transcription factor AP-1 to cell nuclei. […]
(§1) Tissue culture experiments were carried out using primary cultures of rat brain cortical cells as previously described above in Example 2. Primary cultures from embryonic rat brain isolated at E-21 (21 day embryos) and incubated for five hours with various doses: 1, 10, 100 ng/ml of CMX-99672. Cytoplasmic proteins were isolated and analyzed for upregulation of SOD and CAT by Western immunoblots as described above. […] The Western blot was scanned to quantify the fold-increase in SOD production in cell cultures treated with the CMX-99672 peptide compound.
Representative peptide compounds were tested at various doses and compared for their ability to upregulate expression of genes for SOD and/or CAT in rat primary cortical cultures basically as described above. Cultures were incubated with a peptide compound for 5 hours at 37° C. Cytoplasmic protein fractions were prepared as described above. Cytoplasmic proteins were separated by gel electrophoresis and analyzed by Western immunoblots using antisera to SOD and CAT, respectively (Rockland, Inc., Gilbertsville, Pa.). […]

[2] = system: Superoxide Dismutase (SOD); test: In vivo upregulation of SOD in rat organs (Western immunoblot); parameters: species or system Sprague-Dawley rats; details: for SOD Activity: 6-hour treatment, 10 mg/kg i.v.
Description: In vivo experiments were carried out in Sprague-Dawley rats (300-325 g) with solutions of CMX-1152 or CMX-99672. The animals were injected intravenously (iv) via the tail vein with a peptide compound. […] The animals were sacrificed by decapitation at 6, 12, 24, 48, and 72 hours post injection and dissected to isolate brain, liver, heart, kidney, lung organs, which were frozen at −70° C. for subsequent analysis. In addition, 2 ml samples of whole blood were taken from each animal. Half (1 ml) of each sample was centrifuged to remove nuclei and cell membranes to yield plasma. The remaining half was stored frozen as whole blood at −70° C.
Each tissue was thawed and homogenized in a Down's homogenizer using ten volumes of homogenizer buffer (see, Adams et al., General Cellular Biochemistry, 77: 221-233 (2000); buffer as described in Adams et al., J. Leukoc. Biol., 62: 865-875 (1967)) to obtain a crude cytoplasmic fraction. The tissue homogenates were centrifuged (14,000×g for 5 minutes at 4° C.) to yield the supernatant purified cytoplasmic protein fractions as described in Adams et al. (J. Cell. Biochem., 77: 221-233 (2000)). A 10 μg sample of each protein fraction was then separated by SDS polyacrylamide gel electrophoresis (SDS-PAGE) and analyzed for SOD and CAT content by Western blot assay.
Control for measurement of unstimulated levels of SOD and CAT were obtained from two vehicle only (i.e., no peptide compound) injected rats that were sacrificed at 24 and 72 hours post injection. Both had essentially the same unstimulated levels of SOD and CAT. Standard quantities of each cytoplasmic fractions (10 μg) were loaded on a lane of a gel for electrophoretic separation and Western immunoblot analysis (Adams et al., J. Cell. Biochem., 77: 221-233 (2000)). The stained gels were photographed and scanned by laser densitometry to quantify intensities in comparison to enzyme levels for control vehicle treated rats.

catalase (CAT) protein = test: Western immunoblot of CAT protein in rat primary cortical cultures; type: cell-based; details: for CAT: 5 hours at 37° C.
Description: as §1
Representative peptide compounds were tested at various doses and compared for their ability to upregulate expression of genes for SOD and/or CAT in rat primary cortical cultures basically as described above. Cultures were incubated with a peptide compound for 5 hours at 37° C. Cytoplasmic protein fractions were prepared as described above. Cytoplasmic proteins were separated by gel electrophoresis and analyzed by Western immunoblots using antisera to SOD and CAT, respectively (Rockland, Inc., Gilbertsville, Pa.).

[3] = system: middle cerebral artery (MCA) permanent occlusion stroke model; test: Permanent MCA 24-hour occlusion stroke model; type: in vivo, Sprague-Dawley rats
[4] = system: transcription factor AP-1; test: Electrophoretic mobility shift assay (EMSA) for AP-1 activation in primary rat neurons / cortical cultures; type: cell-based
Description: Nuclear extracts for electrophoretic mobility shift assays (EMSAs) were prepared as described previously (Adams et al., J. Leukocyte Biol., 62: 865-873 (1997)) using 1.0-2.0×10^7 cells per sample. All buffers were freshly supplemented with dithiothreitol (DTT, 0.5 mM), protease inhibitors: PMSF (0.5 mM), chymostatin, peptstatin-A, aprotinin, antipain, leupeptin (each at 1 μg/ml), and phosphatase inhibitors: NaF (10 mM), ZnCl2 (1 mM), sodium orthovanadate (1 mM), and sodium pyrophosphate (5 mM). Aliquots of the final dialyzates were stored at −80° C. and discarded after use.
AP-1 transcription factor activation was assayed using an electrophoretic mobility shift assay (EMSA), as described by Adams et al., J. Leukoc. Biol., 62:865-873 (1997)). Cultures of primary rat neurons (Cornell-Bell et al., Cell Calcium, 12: 185-204 (1991)) were stimulated for 3 hours with various concentrations (0, 1, 10, 100 ng/ml) of peptide CMX-9236. Nuclear extracts prepared as described above were separated by gel electophoresis on non-denaturing gels and subjected to the EMSA procedure. This EMSA used an AP-1 synthetic duplex probe (Angel, P., 1987, Cell 49:729-739) having the sequence 5′-[…] (SEQ ID NO:33) and its antisense copy (complement strand), which were end-labeled with P^32 using polynucleotide kinase and (γ-P^32)-ATP. For the EMSA reaction, the labeled probe (0.5 pmol) was mixed with 3 μg of nuclear extract protein in a solution containing 10 mM Tris-HCl, pH 7.5, 50 mM NaCl, 1 mM EDTA, 1 mM dithiothreitol, 5% glycerol, 0.02% β-mercaptoethanol, and 1 μg of poly-dI/dC (Pharmacia). Reaction mixtures were incubated at 25° C. for 20 minutes to allow complete complex formation by the duplex with its appropriate AP-1 protein. The mixture was then electrophoresed under non-denaturing conditions through 4% polyacrylamide gels in 0.5×TBE buffer (45 mM Trisma base, 45 mM boric acid, 1 mM EDTA). The gels were dried on 3 mm paper. Bands were visualized by autoradiography at −80° C. with one intensifying screen and quantified by laser densitometry. The upregulation of AP-1 and the activation and upregulation process of AP-1 was compared to control cultures.
Primary cortical cell cultures were grown to confluence and used in in vitro cultures for determining the effects of various representative peptide compounds on upregulation of AP-1. […] Extracts were prepared from the nuclei isolated from the primary culture homogenates, purified, and analyzed for the presence of specific transcription factors using the electrophoretic mobility shift assay (EMSA) method. The binding of ^32P-labeled duplex DNA probes specific for activator protein-1 (AP-1) or nuclear factor κB (NF-κB) was analyzed and quantified by autoradiography. After a 3-hour incubation of the cultures with 1 ng/ml of the peptide CMX-9236 there was a 15-fold increase of AP-1 relative to […] control cultures. […] Thus, a small peptide compound that is less than 20 amino acids long can simulate the properties of large growth factors such as NGF and BDNF, which exist as dimers of protein chains with molecular weights of 13,259 and 13,500, respectively.

[5] = five hours, doses 1, 10, 100 ng/ml

Asp Gly [CMX-1152]
SOD ([1]; Dose 6.7 pmol/ml): 2143 % Control | SOD Upregulation ([1]; Dose 1 ng/ml): 170 % Control | SOD Upregulation ([1]; Dose 10 ng/ml): 330 % Control | SOD Upregulation ([1]; Dose 100 ng/ml): 420 % Control | SOD Activity ([2]; Brain): 520 % of Control | SOD Activity ([2]; Heart): 550 % of Control | SOD Activity ([2]; Kidney): 200 % of Control | SOD Activity ([2]; Liver): 200 % of Control | SOD Activity ([2]; Lung): 520 % of Control | SOD Activity ([2]; Plasma): 420 % of Control | SOD Activity ([2]; Whole Blood): 490 % of Control | upregulation in SOD production relative to control ([2]; brain, heart, lung, and blood): four to five-fold | upregulation in SOD production relative to control ([2]; liver and kidney): approximately two-fold

Asp Gly [CMX-99672]
increase in SOD [1, 5]: approximately 30 fold | increase in SOD-related protein [1, 5]: ~20 fold | upregulation of CAT (in words) (catalase (CAT) protein; [5]): Comparable data was obtained for CAT

KKDGDGDFA [CMX-9902]
upregulation of SOD proteins (in words) ([1]; culture in vitro studies): upregulated SOD proteins | Percent Neurological Rescue ([3]; Dose 0.05 mg/hr): 35 ± 12% | Percent Rescue (percent decrease in infarct size vs vehicle controls) ([3]; Dose 0.05 mg/hr): 29 ± 7% | activation / upregulation of AP-1 (in words) [4]: increased nuclear migration of AP-1

KKQTLQFR
SOD ([1]; Dose 95 pmol/ml): 350 % Control | CAT (catalase (CAT) protein; Dose 95 pmol/ml): 400 % Control

[Ac] Asp Gly Asp Gly Phe Ala (Ac-DGDGFA) [CMX-99655]
SOD ([1]; Dose 8 pmol/ml): 750 % Control | CAT (catalase (CAT) protein; Dose 8 pmol/ml): 520 % Control

[Ac] Thr Val Ser [CMX-99647]
SOD ([1]; Dose 6.7 pmol/ml): 2066 % Control

[DHA]-Lys Lys Asp Gly Asp Gly Asp Phe Ala Ile Asp Ala Pro Glu [CMX-9236D]
Percent Neurological Rescue ([3]; Dose 0.03 mg/hr): 50 ± 18% | Percent Rescue (percent decrease in infarct size vs vehicle controls) ([3]; Dose 0.03 mg/hr): 48 ± 12%

[Gga] Asp Gly Asp Gly Phe Ala (Gga-DGDGFA; not fully specified; printed as [Gga] Asp Gly Asp Gly Phe Ala; reading uncertain) [CMX-99661]
SOD ([1]; Dose 6.7 pmol/ml): 463 % Control

[Palm] Asp Gly Asp Gly Phe Ala (Palmitoyl-DGDGFA) [CMX-9960]
SOD ([1]; Dose 6.7 pmol/ml): 527 % Control

Reference: patent US8772237B2, “Compositions and methods for counteracting effects of reactive oxygen species and free radicals” (Ischemix, Inc., priority 1999, dated 2014)
